Data taken from article PMC3197876 (Journal of medicinal chemistry, 2011).
“Also recorded” adds a separate entry of the source. Like-named read-outs stand apart in the source and are kept apart here.

How the values were obtained:
[1] = tested on: nine different CYP450 enzymes; test: CYP450 inhibition; assay type: in vitro ADME
[2] = target: β2* nAChR (Mus musculus, UniProt O70174+Q9ERK7); test: β2* nAChR ex vivo receptor occupancy in the thalamus; settings: for receptor occupancy at 3 mg/kg: mouse, ip, read-out: ex vivo receptor occupancy at β2* receptors
[3] = target: H1 histaminergic receptor (Homo sapiens, UniProt P35367); test: PDSP primary binding screen; settings: read-out: %Inhibition H1
[4] = target: 5-HT5A (Homo sapiens, UniProt P47898); test: PDSP primary binding screen; settings: read-out: %Inhibition 5-HT5A
[5] = target: T1, M5 muscarinic receptor (Homo sapiens, UniProt P08912); test: PDSP primary binding screen; settings: read-out: %Inhibition M5
T1 sequence (P08912 1-532): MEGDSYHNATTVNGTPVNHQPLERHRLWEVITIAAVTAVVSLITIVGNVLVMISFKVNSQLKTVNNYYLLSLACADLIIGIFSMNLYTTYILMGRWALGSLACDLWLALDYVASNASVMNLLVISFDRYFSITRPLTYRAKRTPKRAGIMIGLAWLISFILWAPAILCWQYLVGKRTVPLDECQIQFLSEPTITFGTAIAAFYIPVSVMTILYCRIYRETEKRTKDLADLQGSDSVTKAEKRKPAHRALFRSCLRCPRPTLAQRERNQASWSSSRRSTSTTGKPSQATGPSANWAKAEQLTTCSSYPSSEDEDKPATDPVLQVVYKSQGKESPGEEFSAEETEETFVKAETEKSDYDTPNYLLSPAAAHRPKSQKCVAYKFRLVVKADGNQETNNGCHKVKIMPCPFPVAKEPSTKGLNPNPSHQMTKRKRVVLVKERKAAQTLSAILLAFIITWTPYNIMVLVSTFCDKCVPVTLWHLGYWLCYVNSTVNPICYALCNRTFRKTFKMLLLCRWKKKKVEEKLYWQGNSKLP

[6] = target: α4β2* nAChR (native) (Rattus norvegicus, UniProt P09483+P12390); test: [3H]epibatidine binding competition, rat forebrain membranes
[7] = In vitro metabolism with human liver microsomes; assay type: in vitro ADME; settings: 1 µM
[8] = target: α4β2 nAChR (Rattus norvegicus, UniProt P09483+P12390); assay type: binding; settings: ratio of Ki values
[9] = In vitro metabolism with mouse liver microsomes; assay type: in vitro ADME; settings: 1 µM
[10] = target: human α4β2-nAChR (Homo sapiens, UniProt P17787+P43681); test: 86Rb+ efflux assay in SH-EP1-hα4β2 cells; settings: 86Rb+ ion flux assay
[11] = target: DAT: Dopamine Transporter (Homo sapiens, UniProt Q01959); test: PDSP primary binding screen; settings: read-out: %Inhibition DAT
[12] = target: β3 adrenergic receptor (Homo sapiens, UniProt P13945); test: PDSP primary binding screen; settings: read-out: %Inhibition β3
[13] = tested on: BALB/cJ male mice; assay type: in vivo, mouse
[14] = intraperitoneal, 1 mg/kg, 30 min before test

SMILES | receptor occupancy at 3 mg/kg [2] [%] | Ki [6] [nM] | selectivity for α4β2- over α3β4-nAChR [8] | functional characterization at α4β2-nAChRs [10] | immobility in forced swim test [13, 14] | immobility in forced swim test ([13]; intraperitoneal, 3 mg/kg) | immobility in forced swim test ([13]; oral, 10 mg/kg) | other results
Cl.OCCCc1cc(-c2cncc(OC[C@@H]3CCN3)c2)on1 [Compound 3, 3-[5-[5-(2(S)-Azetidinylmethoxy)-3-pyridyl]-3-isoxazolyl]-1-propanol Hydrochloride] | 60 to 70 | 1.9 ± 0.3 | ~15,000 fold | partial agonist | insignificant trend | significant reduction in immobility | decreased the time immobile; also recorded: reduced immobility | inhibitory potential towards nine different CYP450 enzymes [1]: no significant inhibition; inhibition at 10 µM [3]: -19.9%; inhibition at 10 µM [4]: -17.8%; inhibition at 10 µM [5]: -18.9%; metabolism with human liver microsomes [7]: no detectable metabolism; metabolism with mouse liver microsomes [9]: no detectable metabolism; inhibition at 10 µM [11]: -10.1%; inhibition at 10 µM [12]: -17.7%; immobility in forced swim test ([13]; oral, 1 and 3 mg/kg): failed to show significant activity; immobility in forced swim test (Figure 5) ([13]; oral, lowest dose): slightly higher
Cl.OCc1cc(-c2cncc(OC[C@@H]3CCN3)c2)on1 [Compound 4, 5-[5-(2(S)-Azetidinylmethoxy)-3-pyridyl]-3-isoxazolylmethanol Hydrochloride] | 60 to 70 | 0.61 ± 0.1 | 20,000 fold | partial agonists |  |  |  | immobility in forced swim test (Figure 3) ([13]; intraperitoneal, highest dose only): insignificant trend
Cl.OCCc1cc(-c2cncc(OC[C@@H]3CCN3)c2)on1 [Compound 5, 2-[5-[5-(2(S)-Azetidinylmethoxyl)-3-pyridyl]-3-isoxazolyl]ethanol Hydrochloride] | ~80 |  |  |  | significant reduction in immobility | significant reduction in immobility | decreased the time immobile | receptor occupancy (Figure 4, in words) ([2]; 3 mg/kg intraperitoneal, mice): higher receptor occupancy; immobility in forced swim test (Figure 5) ([13]; oral, all doses tested): efficacious
CN[C@H]1CC[C@@H](c2ccc(Cl)c(Cl)c2)c2ccccc21 [sertraline, reference compound] |  |  |  |  |  |  |  | immobility in forced swim test (Figure 5) ([13]; positive control in oral study, 10 or 20 mg/kg): expected decrease in immobility; immobility in forced swim test (Figure 3) ([13]; positive control, intraperitoneal, 10 or 20 mg/kg): expected decrease in immobility
